Reference: ChEMBL document CHEMBL1201862, “PubChem BioAssay data set” (2004)
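Briefly, cells in 96-well plates were exposed to five compound concentrations for 48 h, and endpoints were estimated by linear interpolation. Abbreviation: GI50, concentration required for 50% inhibition of growth.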 Calls of active or inactive are those of the source. Rule as the data show it: active = GI50 up to about 1.1 µM and inactive = higher.

Assays:
Experiment in all cases: NCI-60 cell line screen, 48 h
HOP-92 = test system: HOP-92
HCT-15 = test system: HCT-15
KM12 = test system: KM12
K562 = test system: K562
CAKI-1 = test system: CAKI-1
T47D = test system: T47D
TK-10 = test system: TK-10
NCI-H226 = test system: NCI-H226
SK-OV-3 = test system: SK-OV-3
DU-145 = test system: DU-145
HCC 2998 = test system: HCC 2998
HL-60 = test system: HL-60
EKVX = test system: EKVX
COLO 205 = test system: COLO 205
NCI-H522 = test system: NCI-H522
SK-MEL-5 = test system: SK-MEL-5
RPMI-8226 = test system: RPMI-8226
UACC-257 = test system: UACC-257
MDA-MB-435 = test system: MDA-MB-435
MOLT-4 = test system: MOLT-4

With `Cc1ccc2nc(CC(=O)c3ccc4ccccc4c3)c(O)nc2c1` the GI50 (HOP-92) was > 100 µM (inactive), the GI50 (HCT-15) was over 100 µM and the GI50 (KM12) was > 100 µM (inactive). For the same compound, the GI50 (K562) was > 100 µM (inactive), the GI50 (CAKI-1) was > 100 µM (inactive) and the GI50 (T47D) was > 100 µM (inactive). For the same compound, the GI50 (TK-10) was > 100 µM (inactive), the GI50 (NCI-H226) was > 100 µM (inactive) and the GI50 (SK-OV-3) was > 100 µM (inactive). For the same compound, the GI50 (DU-145) was > 100 µM (inactive), the GI50 (HCC 2998) was > 100 µM (inactive) and the GI50 (HL-60) was > 100 µM (inactive). For the same compound, the GI50 (EKVX) was > 100 µM (inactive), the GI50 (COLO 205) was > 100 µM (inactive) and the GI50 (NCI-H522) was > 100 µM (inactive). For the same compound, the GI50 (SK-MEL-5) was > 100 µM (inactive), the GI50 (RPMI-8226) was > 100 µM (inactive) and the GI50 (UACC-257) was > 100 µM (inactive). The GI50 (MDA-MB-435) was > 100 µM (inactive) and the GI50 (MOLT-4) was > 100 µM (inactive).
With `CC/C(Cl)=N\OC(=O)Nc1ccc(C#N)cc1` the GI50 (HOP-92) was 3.15 µM (inactive), the GI50 (HCT-15) was 7.93 µM and the GI50 (KM12) was 17.1 µM (inactive). For the same compound, the GI50 (K562) was 1.86 µM (inactive), the GI50 (CAKI-1) was 5.04 µM (inactive) and the GI50 (T47D) was 10.8 µM (inactive). The GI50 (TK-10) was 16.4 µM (inactive), the GI50 (NCI-H226) was 16.6 µM (inactive) and the GI50 (SK-OV-3) was 4.94 µM (inactive). The GI50 (DU-145) was 16 µM (inactive), the GI50 (HCC 2998) was 16.4 µM (inactive) and the GI50 (HL-60) was 2.01 µM (inactive). For the same compound, the GI50 (EKVX) was 13.3 µM (inactive), the GI50 (COLO 205) was 1.82 µM (inactive) and the GI50 (NCI-H522) was 1.48 µM (inactive). For the same compound, the GI50 (SK-MEL-5) was 12.9 µM (inactive), the GI50 (RPMI-8226) was 2.28 µM (inactive) and the GI50 (UACC-257) was 16.1 µM (inactive). For the same compound, the GI50 (MDA-MB-435) was 15.6 µM (inactive) and the GI50 (MOLT-4) was 2.28 µM (inactive).
In the case of `c1ccc2c(c1)Cn1c-2nc2ccccc21`, the GI50 (HOP-92) is reported as > 100 µM (inactive), the GI50 (HCT-15) is reported as 94.4 µM and the GI50 (KM12) is reported as > 100 µM (inactive). The GI50 (K562) was > 100 µM (inactive), the GI50 (CAKI-1) was > 100 µM (inactive) and the GI50 (T47D) was > 100 µM (inactive). For the same compound, the GI50 (TK-10) was > 100 µM (inactive), the GI50 (NCI-H226) was 61.7 µM (inactive) and the GI50 (SK-OV-3) was > 100 µM (inactive). For the same compound, the GI50 (DU-145) was 23.9 µM (inactive), the GI50 (HCC 2998) was > 100 µM (inactive) and the GI50 (HL-60) was > 100 µM (inactive). The GI50 (EKVX) was > 100 µM (inactive), the GI50 (COLO 205) was 98.4 µM (inactive) and the GI50 (NCI-H522) was 43.1 µM (inactive). The GI50 (SK-MEL-5) was 42.4 µM (inactive), the GI50 (RPMI-8226) was 65 µM (inactive) and the GI50 (UACC-257) was > 100 µM (inactive). The GI50 (MDA-MB-435) was > 100 µM (inactive) and the GI50 (MOLT-4) was 31.1 µM (inactive).
`Cc1cccc(/N=N/C(=N\NC(=O)c2cc(Cl)ccc2O)c2ccc(N(CCC#N)CCC#N)cc2C)c1` was tested, and the GI50 (HOP-92) was 23.8 µM (inactive), the GI50 (HCT-15) was 27.7 µM and the GI50 (KM12) was 27.2 µM (inactive). The GI50 (K562) was 33.3 µM (inactive), the GI50 (CAKI-1) was 30.6 µM (inactive) and the GI50 (T47D) was 22.9 µM (inactive). The GI50 (TK-10) was 20 µM (inactive), the GI50 (NCI-H226) was 36 µM (inactive) and the GI50 (SK-OV-3) was 35.7 µM (inactive). For the same compound, the GI50 (DU-145) was 39.6 µM (inactive), the GI50 (HCC 2998) was 28.5 µM (inactive) and the GI50 (HL-60) was 14.3 µM (inactive). For the same compound, the GI50 (EKVX) was 34.7 µM (inactive), the GI50 (COLO 205) was 13.6 µM (inactive) and the GI50 (NCI-H522) was 20.8 µM (inactive). The GI50 (SK-MEL-5) was 34 µM (inactive), the GI50 (RPMI-8226) was 14.9 µM (inactive) and the GI50 (UACC-257) was 30.7 µM (inactive). The GI50 (MDA-MB-435) was 47.1 µM (inactive) and the GI50 (MOLT-4) was 15.9 µM (inactive).
`COC(=O)CCc1ccc2c(c1)CC1(C2)Cc2ccc3c(c2C1)CCC3` (configuration not stated) was tested, and the GI50 (HOP-92) was 54 µM (inactive), the GI50 (HCT-15) was 59.2 µM and the GI50 (KM12) was 39.3 µM (inactive). For the same compound, the GI50 (K562) was 38.7 µM (inactive), the GI50 (T47D) was 18.8 µM (inactive) and the GI50 (TK-10) was > 100 µM (inactive). The GI50 (NCI-H226) was > 100 µM (inactive), the GI50 (SK-OV-3) was 30.4 µM (inactive) and the GI50 (DU-145) was 70 µM (inactive). For the same compound, the GI50 (HCC 2998) was 52.4 µM (inactive), the GI50 (HL-60) was 30.3 µM (inactive) and the GI50 (EKVX) was > 100 µM (inactive). For the same compound, the GI50 (COLO 205) was 80.4 µM (inactive), the GI50 (NCI-H522) was 59.2 µM (inactive) and the GI50 (SK-MEL-5) was 34.4 µM (inactive). The GI50 (RPMI-8226) was 31.3 µM (inactive), the GI50 (UACC-257) was > 100 µM (inactive) and the GI50 (MDA-MB-435) was 38.1 µM (inactive). For the same compound, the GI50 (MOLT-4) was 38.5 µM (inactive).
`COc1ccc(-c2c3c(n(C4OC(CO)C(O)C(O)C4O)c(=S)c2C#N)CC(C)(C)CC3=O)cc1` (configuration not stated) was tested, and the GI50 (HOP-92) was > 100 µM (inactive), the GI50 (HCT-15) was over 100 µM and the GI50 (KM12) was > 100 µM (inactive). The GI50 (K562) was > 100 µM (inactive), the GI50 (CAKI-1) was > 100 µM (inactive) and the GI50 (T47D) was 13.8 µM (inactive). For the same compound, the GI50 (TK-10) was > 100 µM (inactive), the GI50 (NCI-H226) was 96.6 µM (inactive) and the GI50 (DU-145) was > 100 µM (inactive). For the same compound, the GI50 (HCC 2998) was > 100 µM (inactive), the GI50 (HL-60) was > 100 µM (inactive) and the GI50 (COLO 205) was > 100 µM (inactive). For the same compound, the GI50 (NCI-H522) was > 100 µM (inactive), the GI50 (SK-MEL-5) was > 100 µM (inactive) and the GI50 (RPMI-8226) was 89.7 µM (inactive). The GI50 (UACC-257) was > 100 µM (inactive), the GI50 (MDA-MB-435) was > 100 µM (inactive) and the GI50 (MOLT-4) was 79.4 µM (inactive).
`[B].c1ccc([Si](OCCN2CC2)(c2ccccc2)c2ccccc2)cc1` was tested, and the GI50 (HOP-92) was 2.36 µM (inactive), the GI50 (HCT-15) was 7.66 µM and the GI50 (KM12) was 15.6 µM (inactive). For the same compound, the GI50 (K562) was 8.3 µM (inactive), the GI50 (CAKI-1) was 16.3 µM (inactive) and the GI50 (T47D) was 15.6 µM (inactive). For the same compound, the GI50 (TK-10) was 15.5 µM (inactive), the GI50 (NCI-H226) was 16 µM (inactive) and the GI50 (SK-OV-3) was 14.4 µM (inactive). The GI50 (DU-145) was 13.7 µM (inactive), the GI50 (HCC 2998) was 13.6 µM (inactive) and the GI50 (HL-60) was 27.1 µM (inactive). The GI50 (EKVX) was 12.8 µM (inactive), the GI50 (COLO 205) was 12.2 µM (inactive) and the GI50 (NCI-H522) was 12.9 µM (inactive). The GI50 (SK-MEL-5) was 15.8 µM (inactive), the GI50 (RPMI-8226) was 13.9 µM (inactive) and the GI50 (UACC-257) was 15.3 µM (inactive). The GI50 (MDA-MB-435) was 13.8 µM (inactive) and the GI50 (MOLT-4) was 14.3 µM (inactive).
